≈ marks a conversion by molar mass, not a printed value. Like-named read-outs stand apart in the source and are kept apart here.
Assays:
[1] = format: physicochemical
Excerpt: It is possible to enhance the cyclodextrin (CD) complexation efficacy, or efficiency, of drugs (D), and other “guest” molecules, by either increasing the apparent stability constant (KC) of the drug-cyclodextrin complex (D-CD) or increasing the apparent intrinsic solubility (S0) of the drug. For example, KC can be increased by addition of water-soluble polymers to the aqueous complexation media and S0 can be increased by ionization of the drug molecule, as described previously. […] On the other hand, if the drug-cyclodextrin complexes are prepared under conditions which ensure enhanced complexation and if the complexation efficiency decreases upon administration, then enhanced drug availability will be observed. Thus, the present invention involves: i) enhancement of the complexation efficiency and ii) reduction of the complexation efficiency after administration. For example, it is possible to enhance the complexation efficiency of many ionizable drugs by preparing the complexes at a pH where the drug is ionized but obtain decreased efficiency upon administration due to pH changes and consequent decreased ionization. One example of such a drug is phenytoin (pKa 8.1). […]

[2] = cited from earlier work; for solubility in water: room temperature (25° C.)
[3] = cited from earlier work

SMILES: O=C1NC(=O)C(c2ccccc2)(c2ccccc2)N1 [phenytoin, 5,5-diphenyl-2,4-imidazolidinedione]
- solubility enhancement by 25% (w/v) 2-hydroxypropyl-β-cyclodextrin ([1]; pH 5): 280 fold
- solubility enhancement by 25% (w/v) 2-hydroxypropyl-β-cyclodextrin ([1]; pH 8): 200 fold
- solubility with 25% (w/v) 2-hydroxypropyl-β-cyclodextrin ([2]; pH 5): 5000 µg/mL
- solubility with 25% (w/v) 2-hydroxypropyl-β-cyclodextrin ([2]; pH 8): 6400 µg/mL
- solubility in water ([2]; pH 5): 18 µg/mL (≈ 71.4 µM)
- solubility in water ([2]; pH 8): 32 µg/mL (≈ 127 µM)
- pKa [3]: 8.1

Source: patent US6699849B1, “Cyclodextrin complexes of benzodiazepines” (Cyclops, ehf., priority 1998, dated 2004)
